# Molecular target: T1, NAD(+) hydrolase SARM1 (Homo sapiens, UniProt Q6SZW1)
# T1 sequence (Q6SZW1 whole entry): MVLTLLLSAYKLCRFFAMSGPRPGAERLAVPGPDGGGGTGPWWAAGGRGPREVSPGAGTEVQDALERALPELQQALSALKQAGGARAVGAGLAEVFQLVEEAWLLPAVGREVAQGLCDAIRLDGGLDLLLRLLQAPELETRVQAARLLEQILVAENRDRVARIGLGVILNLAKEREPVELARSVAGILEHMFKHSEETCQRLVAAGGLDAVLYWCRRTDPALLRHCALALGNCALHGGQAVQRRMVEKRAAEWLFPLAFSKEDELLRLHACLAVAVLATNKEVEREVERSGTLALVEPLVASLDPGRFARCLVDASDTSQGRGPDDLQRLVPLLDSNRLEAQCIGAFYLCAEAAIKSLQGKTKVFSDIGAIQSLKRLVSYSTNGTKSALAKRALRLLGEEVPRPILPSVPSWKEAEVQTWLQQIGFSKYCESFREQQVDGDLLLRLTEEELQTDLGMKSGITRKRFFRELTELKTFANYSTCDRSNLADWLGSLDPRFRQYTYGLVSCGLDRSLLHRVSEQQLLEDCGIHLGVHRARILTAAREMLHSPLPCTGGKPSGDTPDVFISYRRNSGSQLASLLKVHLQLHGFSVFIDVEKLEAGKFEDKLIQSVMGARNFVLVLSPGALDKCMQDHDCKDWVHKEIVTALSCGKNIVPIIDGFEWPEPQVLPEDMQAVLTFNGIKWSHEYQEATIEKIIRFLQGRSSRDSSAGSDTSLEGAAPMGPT
# Test: Biochemical Assay of the Compounds
# Procedure: Preparation of full-length SARM1 (FL-SARM1) lysate: HEK293T cells (ATCC: CRL-3216) were grown on 150 mm TC-treated dishes to 80-90% confluency in complete DMEM (DMEM (Thermo Fisher: 11965175) supplemented with 10% HI-FBS (VWR: 10802-772), 1x Pen/Strep (Thermo Fisher: 15140122), 1x NEAA (Thermo Fisher: 1140050), 1x glutamax (Thermo Fisher: 35050061), and 1 mM sodium pyruvate (Thermo Fisher: 11360070)) at 37 °C and 5% CO2. One hour prior to transfection, the media was replaced with fresh, 37 °C complete DMEM (20 mL per one 150 mm dish) supplemented with additional 10mM glucose (Alfa Aesar AAJ60067EQE). Per one 150 mm dish, 30 µg FL-SARM1 (SEQ. ID.1; cloned in-house) plasmid was dissolved in 1 mL DMEM at ambient temperature and were mixed by inverting the tube 8-10 times.90 µL of GenJet™ in vitro DNA transfection reagent (Ver2) was dissolved in 1 mL DMEM at ambient temperature and were mixed by inverting the tube 8-10 times. The plasmid and transfection agent solutions were combined, mixed by 8-10 inversions and incubated for 10 minutes at ambient temperature.2 mL of this transfection mixture was added to each dish containing HEK293T cells as prepared above followed by a gentle mixing of 4-5 horizontal rotations. The dishes were incubated at 37 °C and 5% CO2 for 24 h. The dishes were removed from the incubator, the medium was aspirated and the cells were scraped off using cell scrapers in ice-cold 1x PBS (5 mL/dish, Thermo Fisher Scientific 10010023). The collected cells were centrifuged at 300 g for 5 minutes at 4 °C. The supernatant was aspirated and the pellet was frozen at -80 °C until needed. The cell pellet from 30 dishes was dissolved in 30 mL 1x PBS supplemented with 4 tablets of Complete, Mini EDTA-free protease inhibitor cocktail at 4 °C. This mixture was sonicated on ice for 10 minutes at 50% amplitude with a 1 second on/1 second off interval using a Model 120 sonicator (Thermo Fisher Scientific, FB120110). The lysate was centrifuged at 16000 g for 10 minutes at 4 °C.
row,Structure (SMILES),IC50 [µM]
1,"N#C[C@@H]1CC[C@@H]1c1cc(NC(=O)N2C3CC2CC(C(F)(F)F)C3)ccc1C(F)(F)F (some centres undefined) [WO2025054369, Example 53]",< 1
2,"N#C[C@H]1CC[C@@H]1c1cc(NC(=O)N2C3CC2CC(C(F)(F)F)C3)ccc1C(F)(F)F (some centres undefined) [WO2025054369, Example 54]",< 1
3,"N#C[C@@H]1CC[C@H]1c1cc(NC(=O)N2C3CC2CC(C(F)(F)F)C3)ccc1C(F)(F)F (some centres undefined) [WO2025054369, Example 55]",< 1
4,"N#C[C@H]1CC[C@H]1c1cc(NC(=O)N2C3CC2CC(C(F)(F)F)C3)ccc1Cl (some centres undefined) [WO2025054369, Example 56]",5.5
5,"Cc1nnc([C@]23CCC[C@H](C2)N3C(=O)Nc2ccc(Cl)c(C3CCC3)c2)o1 [WO2025054369, Example 58]",> 10
6,"Cc1nnc([C@@]23CCC[C@@H](C2)N3C(=O)Nc2ccc(Cl)c(C3CCC3)c2)o1 [WO2025054369, Example 59]",5.5
7,"CC1CC2CC(C1)N2C(=O)Nc1ccc(Cl)c([C@@H]2CCC[C@@H]2C#N)c1 (some centres undefined) [WO2025054369, Example 60]",< 1
8,"CC1CC2CC(C1)N2C(=O)Nc1ccc(Cl)c([C@H]2CCC[C@H]2C#N)c1 (some centres undefined) [WO2025054369, Example 61]",< 1
9,"CC1CC2CC(C1)N2C(=O)Nc1ccc(Cl)c([C@H]2CCC[C@@H]2C#N)c1 (some centres undefined) [WO2025054369, Example 62]",< 1
10,"CC1CC2CC(C1)N2C(=O)Nc1ccc(Cl)c([C@@H]2CCC[C@H]2C#N)c1 (some centres undefined) [WO2025054369, Example 63]",< 1
11,"C[C@]1(O)CC[C@H](c2cc(NC(=O)N3C4CC3CC(C(F)(F)F)C4)ccc2Cl)C1 (some centres undefined) [WO2025054369, Example 64]",< 1
12,"C[C@@]1(O)CC[C@@H](c2cc(NC(=O)N3C4CC3CC(C(F)(F)F)C4)ccc2Cl)C1 (some centres undefined) [WO2025054369, Example 65]",5.5
13,"C[C@]1(O)CC[C@@H](c2cc(NC(=O)N3C4CC3CC(C(F)(F)F)C4)ccc2Cl)C1 (some centres undefined) [WO2025054369, Example 66]",< 1
14,"C[C@@]1(O)CC[C@H](c2cc(NC(=O)N3C4CC3CC(C(F)(F)F)C4)ccc2Cl)C1 (some centres undefined) [WO2025054369, Example 67]",< 1
15,"Cc1nnc([C@@]23C[C@@H](C[C@@H](C(F)(F)F)C2)N3C(=O)Nc2ccc(Cl)c(C3CCC3)c2)o1 [WO2025054369, Example 68]",< 1
16,"Cc1nnc([C@]23C[C@H](C[C@H](C(F)(F)F)C2)N3C(=O)Nc2ccc(Cl)c(C3CCC3)c2)o1 [WO2025054369, Example 69]",> 10
17,"Cc1nnc([C@@]23C[C@@H](C)C[C@@H](C2)N3C(=O)Nc2ccc(Cl)c(N3CC(O)C3)c2)o1 [WO2025054369, Example 70]",< 1
18,"CC1CC2CC(C1)N2C(=O)Nc1ccc(Cl)c(N2CC[C@@H]2C#N)c1 (some centres undefined) [WO2025054369, Example 71]",< 1
19,"CC1CC2CC(C1)N2C(=O)Nc1ccc(Cl)c(N2CC[C@H]2C#N)c1 (some centres undefined) [WO2025054369, Example 72]",< 1
20,"CC1(O)CC(c2cc(NC(=O)N3C4CC3CC(C(F)(F)F)C4)ccc2CN)C1 (centres undefined) [WO2025054369, Example 73]",5.5
21,"CC1CC2CC(C1)N2C(=O)Nc1ccc(Cl)c(C2CC(C)(OCCO)C2)c1 (centres undefined) [WO2025054369, Example 74]",< 1
22,"CC1CC2CC(C1)N2C(=O)Nc1ccc(C(F)(F)F)c(C2CCC2)c1 (centres undefined) [WO2025054369, Example 75]",< 1

row,Structure (SMILES),IC50 [µM]
1,"CC1CC2CC(C1)N2C(=O)Nc1ccc(Cl)c(C2CCC2(F)F)c1 (centres undefined) [WO2025054369, Example 76]",< 1
2,"CC1CC2CC(C1)N2C(=O)Nc1ccc(Cl)c(C2CC(=O)C2)c1 (centres undefined) [WO2025054369, Example 77]",< 1
3,"CC1CC2CC(C1)N2C(=O)Nc1ccc(Cl)c(C2CC(O)C2)c1 (centres undefined) [WO2025054369, Example 78]",< 1
4,"COC(C)(C)c1cc(NC(=O)N2C3CC(C)CC2C3)ccc1Cl (centres undefined) [WO2025054369, Example 79]",5.5
5,"Cc1noc(C23CC(C)CC(C2)N3C(=O)Nc2ccc(Cl)c(C3CCC3)c2)n1 (centres undefined) [WO2025054369, Example 80]",< 1
6,"CC1CC2CC(C1)N2C(=O)Nc1ccc(Cl)c(C(C)(C)O)c1 (centres undefined) [WO2025054369, Example 81]",5.5
7,"Cc1noc(C23CC(C)CC(C2)N3C(=O)Nc2ccc(Cl)c(C3CCCC3)c2)n1 (centres undefined) [WO2025054369, Example 82]",< 1
8,"CC1CC2CC(C1)N2C(=O)Nc1ccc(Cl)c(C2CCC2=O)c1 (centres undefined) [WO2025054369, Example 83]",< 1
9,"CC1CC2CC(C1)N2C(=O)Nc1ccc(Cl)c(N2CCC2CF)c1 (centres undefined) [WO2025054369, Example 84]",< 1
10,"CC1CC2CC(C1)N2C(=O)Nc1ccc(Cl)c(N2CC(OCCO)C2)c1 (centres undefined) [WO2025054369, Example 85]",5.5
11,"CC1CC2CC(C1)N2C(=O)Nc1ccc(Cl)c(N2CC(OCCN)C2)c1 (centres undefined) [WO2025054369, Example 86]",> 10
12,"CC1CC2CC(C1)N2C(=O)Nc1ccc(Cl)c(N2CC[C@@H](O)C2)c1 (some centres undefined) [WO2025054369, Example 87]",< 1
13,"CC1CC2CC(C1)N2C(=O)Nc1ccc(Cl)c(N2CC[C@H](O)C2)c1 (some centres undefined) [WO2025054369, Example 88]",< 1
14,"O=C(Nc1ccc(Cl)c(N2CC(O)C2)c1)N1C2CC1CC(C(F)(F)F)C2 (centres undefined) [WO2025054369, Example 89]",< 1
15,"CC1CC2CC(C1)N2C(=O)Nc1ccc(C(F)(F)F)c(N2CC(O)C2)c1 (centres undefined) [WO2025054369, Example 90]",< 1
16,"C[C@@H]1C[C@@H]2C[C@H](C1)N2C(=O)Nc1ccc(Cl)c(N2CC(C#N)C2)c1 [WO2025054369, Example 91]",< 1
17,"C[C@@H]1C[C@@H]2C[C@H](C1)N2C(=O)Nc1ccc(Cl)c(N2CC(O)C2)c1 [WO2025054369, Example 92]",< 1
18,"C[C@@H]1C[C@@H]2C[C@H](C1)N2C(=O)Nc1ccc(Cl)c(N2CCCC2=O)c1 [WO2025054369, Example 93]",5.5
19,"C[C@@H]1C[C@@H]2C[C@H](C1)N2C(=O)Nc1ccc(Cl)c(N2CCOC2=O)c1 [WO2025054369, Example 94]",5.5
20,"C[C@@H]1C[C@@H]2C[C@H](C1)N2C(=O)Nc1ccc(Cl)c(N2CCC2)c1 [WO2025054369, Example 95]",< 1
21,"C[C@@H]1C[C@@H]2C[C@H](C1)N2C(=O)Nc1ccc(Cl)c(N2CCNC2=O)c1 [WO2025054369, Example 96]",< 1
22,"Cc1ccc(NC(=O)N2C3CCCC2C3)cc1N1CCN(C)C1=O [WO2025054369, Example 97]",5.5

# Source: BindingDB's records for patent WO2025054369 (NICO Therapeutics, 2025)
